Experimental data from PMC6731595, “The anti-parasitic agent suramin and several of its analogues are inhibitors of the DNA binding protein Mcm10” (Open Biology, 2019).
“Also recorded” adds a separate entry of the source. Counter-ions that a name gives are not always drawn.

What was measured:
[1] = target: T1, Xenopus internal domain Mcm10 (xMcm10-ID) (Xenopus laevis, UniProt Q5EAW4); experiment: Fluorescence polarization HTS and dose-response assay, 5′-6FAM probe binding to xMcm10-ID; conditions: dose-response with repurchased or purchased compound
T1 construct: xMcm10-ID (amino acid residues 229 to 427); 6xHis (HRV 3C site) (N, cleaved yes); made in house; host or cells: E. coli BL21(DE3)
T1 sequence (Q5EAW4 229-427): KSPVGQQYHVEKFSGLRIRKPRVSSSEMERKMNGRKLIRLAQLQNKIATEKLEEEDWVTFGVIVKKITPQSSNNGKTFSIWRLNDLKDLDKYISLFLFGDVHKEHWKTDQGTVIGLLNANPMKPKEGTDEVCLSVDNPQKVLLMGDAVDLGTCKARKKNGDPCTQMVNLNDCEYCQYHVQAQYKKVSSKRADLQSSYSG
Experimental: (§1) A fluorescence polarization (FP) HTS assay was established to detect inhibitors of the binding of the 5′-6FAM 10-mer oligo probe to Mcm10. Test compounds dissolved in DMSO were added to 384-well plates (Corning 4514) using an Echo 550 acoustic dispenser (final DMSO 0.1%) to achieve a final single point screening concentration of 10 µM. Then 10 µl of 2× Xenopus internal domain Mcm10 (xMcm10-ID, final concentration 2 µM) in binding buffer (20 mM Tris HCl, 100 mM NaCl, 5% glycerol, and 0.01% triton, pH 7.5) was added using the Combi nL Multidrop dispenser. Finally, 10 µl of 2× 5′-6FAM DNA (final 12.5 nM) in binding buffer was added using the Multidrop. DMSO (0.1%, high signal) and probe only (low signal) controls were included on every plate. Plates were mixed for 2 min, incubated for 60 min at RT in the dark, and read on a CLARIOstar multimode plate reader (excitation: 482-16, emission: 530-40, dichroic filter: LP504).
(§2) The LOPAC pilot screen identified the sulfhydryl reagent 4-chloromercuribenzoic acid as an inhibitor in the fluorescence polarization (FP) assay. As there was no known Mcm10 inhibitor, 4-chloromercuribenzoic acid (30 μM) was used as a positive control on initial screening plates. Following the discovery of suramin as a Mcm10 inhibitor, suramin (7 μM) was used as a positive control on subsequent screening plates. To confirm activity, screening hits were tested in dose response experiments (8 concentrations in duplicate) using xMcm10-ID. Similar dose response experiments were conducted with suramin and its analogs to confirm activity for hMcm10-ID (1 μM) and xMcm10-FL (2 μM) and to determine selectivity relative to RPA70AB (0.4 μM). Saturation experiments for each protein were conducted using increasing concentrations of protein with a fixed probe concentration (12.5 nM). FP was measured in mP units, and ∆mP values for each well were calculated as the difference between the measured mP and the average of the “probe only” controls. […] The parallel and perpendicular mP values were also used to calculate total fluorescence intensity (TFI) determined by the sum of parallel mP + (2 x perpendicular mP). TFI was used to detect fluorescence interference by compounds [1]. […] IC50 values were calculated using the four parameter logistic equation in Prism 6.0 (GraphPad). Ki values were obtained using an online Ki calculator according to the equations of Nikolovska-Coleska (http://sw16.im.med.umich.edu/soft-ware/calc_ki/). KD values were calculated using the one site or two site binding equations in Prism 6.0 (GraphPad).

[2] = system: hTERT RPE-1 cells; experiment: CellTiter-Glo cell viability assay, hTERT RPE-1; assay type: cell-based; conditions: Homo sapiens, hTERT-RPE1, 96 h; 4 days, intracellular ATP; mean ± s.e.m., n = 3
Experimental: HCT116 cells were grown in McCoy's 5A medium (Corning 10-050-CV) supplemented with 10% FBS (Sigma F4135), 1% Pen Strep (Gibco 15140) and 1% L-Glutamine (Gibco 205030). hTERT RPE-1 cells were grown in DMEM/F12 medium (Gibco 11320) supplemented with 10% FBS (Sigma F4135) and 1% Pen Strep (Gibco 15140). Cells were cultured at 37°C and 5% CO2. Cells were plated at 250 cells (hTERT RPE-1) or 500 cells (HCT116) per well in white-walled 96-well plates (Costar 3610) and allowed to recover for 24 h. Stock solutions of each inhibitor were prepared in sterile 1× PBS (Gibco 14190), and further diluted in the appropriate growth medium for each cell type. Cells were allowed to grow for 4 days in inhibitor containing medium and cell viability was measured with the CellTiter-Glo Luminescent Cell Viability Assay (Promega G7572) following the manufacturer's instructions. Viability of each drug treatment condition was normalized to the untreated control for each cell line and fitted to the sigmoidal dose–response variable slope four parameter equation in GraphPad Prism 6.0.

[3] = target: T2, full-length Xenopus Mcm10 (xMcm10-FL) (Xenopus laevis, UniProt Q5EAW4); experiment: Fluorescence polarization competition assay, displacement of 5′-6FAM ssDNA probe from xMcm10-FL; assay type: binding; conditions: for activity at xMcm10-FL (result in words): FP displacement curves, figure S3; for Ki: averages of n = 2, xMcm10-FL 2 μM
T2 construct: The full-length xMcm10 was expressed with MBP fused onto the N-terminus and 6x-His tag attached to the C-terminus; 6xHis (C); made in house; host or cells: E. coli BL21(DE3), as for the ID constructs ('as described above')
T2 sequence (Q5EAW4 1-860): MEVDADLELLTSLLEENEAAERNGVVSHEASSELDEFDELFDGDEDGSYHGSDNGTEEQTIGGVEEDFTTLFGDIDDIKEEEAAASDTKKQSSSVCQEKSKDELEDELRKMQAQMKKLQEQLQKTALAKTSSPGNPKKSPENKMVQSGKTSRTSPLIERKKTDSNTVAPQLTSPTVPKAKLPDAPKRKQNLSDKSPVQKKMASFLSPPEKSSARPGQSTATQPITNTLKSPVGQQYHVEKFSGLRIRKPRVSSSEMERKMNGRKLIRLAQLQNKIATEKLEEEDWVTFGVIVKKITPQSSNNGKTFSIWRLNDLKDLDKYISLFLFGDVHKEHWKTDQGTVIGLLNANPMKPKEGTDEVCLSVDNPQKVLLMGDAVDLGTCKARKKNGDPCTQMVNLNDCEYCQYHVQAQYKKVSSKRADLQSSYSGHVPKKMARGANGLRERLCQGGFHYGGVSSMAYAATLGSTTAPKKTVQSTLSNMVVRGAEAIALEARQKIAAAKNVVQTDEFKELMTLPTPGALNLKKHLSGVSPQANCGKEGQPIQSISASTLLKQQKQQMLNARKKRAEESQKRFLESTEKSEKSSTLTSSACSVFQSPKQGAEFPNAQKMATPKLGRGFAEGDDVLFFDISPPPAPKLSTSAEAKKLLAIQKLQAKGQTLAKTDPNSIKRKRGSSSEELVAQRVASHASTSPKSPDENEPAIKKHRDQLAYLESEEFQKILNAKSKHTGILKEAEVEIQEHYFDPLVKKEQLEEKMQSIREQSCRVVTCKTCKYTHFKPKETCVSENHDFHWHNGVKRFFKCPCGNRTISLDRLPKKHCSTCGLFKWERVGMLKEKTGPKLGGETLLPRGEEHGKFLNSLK
Experimental: as §1, §2

activity at xMcm10-FL (result in words) [3]	Ki [3] [µM]	higher affinity for hMcm10-ID over xMcm10-FL ([3]; FP Ki comparison)	Structure (SMILES)	inhibition of 5′-6FAM probe binding to xMcm10-ID (result in words) [1]	IC50 [2] [µM]
–	4.4	–	O=C(Nc1cccc(C(=O)Nc2ccc(S(=O)(=O)O)c3cc(S(=O)(=O)O)cc(S(=O)(=O)O)c23)c1)Nc1cccc(C(=O)Nc2ccc(S(=O)(=O)O)c3cc(S(=O)(=O)O)cc(S(=O)(=O)O)c23)c1 [NF023]	–	–
–	3.4	up to 20 fold	O=C(Nc1cccc(C(=O)Nc2cc(C(=O)Nc3ccc(S(=O)(=O)O)c4cc(S(=O)(=O)O)cc(S(=O)(=O)O)c34)ccc2F)c1)Nc1cccc(C(=O)Nc2cc(C(=O)Nc3ccc(S(=O)(=O)O)c4cc(S(=O)(=O)O)cc(S(=O)(=O)O)c34)ccc2F)c1 [NF157]	–	120 ± 16

Second part, the compound before the results:

Structure (SMILES)	activity at xMcm10-FL (result in words) [3]	Ki [3] [µM]	higher affinity for hMcm10-ID over xMcm10-FL ([3]; FP Ki comparison)	inhibition of 5′-6FAM probe binding to xMcm10-ID (result in words) [1]	IC50 [2] [µM]
Cc1nc(/N=N/c2cc(S(=O)(=O)O)ccc2S(=O)(=O)O)c(COP(=O)(O)O)c(C=O)c1O [iso-PPADS, pyridoxalphosphate-6-azophenyl-2’, 5’-disulfonic acid tetrasodium salt]	inactivity	> 1000	–	weakly and incompletely inhibit; also recorded: little activity	560 ± 55
Cc1nc(/N=N/c2ccc(S(=O)(=O)O)cc2S(=O)(=O)O)c(COP(=O)(O)O)c(C=O)c1O [PPADS, pyridoxalphosphate-6-azophenyl-2’, 4’-disulfonic acid tetrasodium salt]	inactivity	> 1000	–	weakly and incompletely inhibit; also recorded: little activity	400 ± 14
Cc1ccc(C(=O)Nc2ccc(S(=O)(=O)O)c3cc(S(=O)(=O)O)cc(S(=O)(=O)O)c23)cc1NC(=O)c1cccc(NC(=O)Nc2cccc(C(=O)Nc3cc(C(=O)Nc4ccc(S(=O)(=O)O)c5cc(S(=O)(=O)O)cc(S(=O)(=O)O)c45)ccc3C)c2)c1 [suramin, suramin sodium salt]	–	3.4	–	active	400 ± 22
